From patent US12077503B2, “Substituted cyclic amides and their use as herbicides” (FMC CORPORATION, priority 2015, dated 2024)

Experiments:
Format in all cases: in vivo
[1] = tested on: ivy-leaved morning glory (Ipomoea hederacea); assay: Test G Pre-Emergence Protocol; settings: Ipomoea, pre-emergence, 312 h, evaluated after 13 days; for pest or weed control at 15.625 g/ha: 15.625 g ai/ha; for pest or weed control at 15.625 g/ha / pest or weed control at 250 g/ha: read-out: Morningglory, Ivy-leaved damage rating (100=total damage to plant; 0=no damage to plant); for pest or weed control at 62.5 g/ha: 62.5 g ai/ha, 100=total damage to plant, 0=no damage to plant, read-out: Morningglory, Ivy-leaved damage rating; for pest or weed control at 250 g/ha: 250 g ai/ha
Summary of the method: (§1)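 Test compound in 0.5% Tween 20 acetone/water (50:50) was applied at three rates (15.625, 62.5, 250 g/ha) to soil sown one day earlier. After 13 days plants were scored for injury, where 0 means unaffected and 100 means completely damaged.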

[2] = tested on: barnyardgrass (Echinochloa crus-galli); assay: Test G Pre-Emergence Protocol; settings: Echinochloa crus-galli, pre-emergence, 312 h, evaluated after 13 days; for pest or weed control at 15.625 g/ha: 15.625 g ai/ha; for pest or weed control at 15.625 g/ha / pest or weed control at 250 g/ha: read-out: Barnyardgrass damage rating (100=total damage to plant; 0=no damage to plant); for pest or weed control at 62.5 g/ha: 62.5 g ai/ha, 100=total damage to plant, 0=no damage to plant, read-out: Barnyardgrass damage rating; for pest or weed control at 250 g/ha: 250 g ai/ha
Summary of the method: as §1

[3] = tested on: velvetleaf (Abutilon theophrasti); assay: Test G Pre-Emergence Protocol; settings: Abutilon theophrasti, pre-emergence, 312 h, evaluated after 13 days; for pest or weed control at 15.625 g/ha: 15.625 g ai/ha; for pest or weed control at 15.625 g/ha / pest or weed control at 250 g/ha: read-out: Velvetleaf damage rating (100=total damage to plant; 0=no damage to plant); for pest or weed control at 62.5 g/ha: 62.5 g ai/ha, 100=total damage to plant, 0=no damage to plant, read-out: Velvetleaf damage rating; for pest or weed control at 250 g/ha: 250 g ai/ha
Summary of the method: as §1

corn (Zea mays) [4] = assay: Test G Pre-Emergence Protocol; settings: Zea mays, pre-emergence, 312 h, evaluated after 13 days; for plant injury at 15.625 g/ha: 15.625 g ai/ha; for plant injury at 15.625 g/ha / plant injury at 250 g/ha: read-out: Corn damage rating (100=total damage to plant; 0=no damage to plant); for plant injury at 62.5 g/ha: 62.5 g ai/ha, 100=total damage to plant, 0=no damage to plant, read-out: Corn damage rating; for plant injury at 250 g/ha: 250 g ai/ha
Summary of the method: as §1

[5] = tested on: giant foxtail (Setaria faberi); assay: Test G Pre-Emergence Protocol; settings: Setaria faberi, pre-emergence, 312 h, evaluated after 13 days; for pest or weed control at 15.625 g/ha: 15.625 g ai/ha; for pest or weed control at 15.625 g/ha / pest or weed control at 250 g/ha: read-out: Foxtail, Giant damage rating (100=total damage to plant; 0=no damage to plant); for pest or weed control at 62.5 g/ha: 62.5 g ai/ha, 100=total damage to plant, 0=no damage to plant, read-out: Foxtail, Giant damage rating; for pest or weed control at 250 g/ha: 250 g ai/ha
Summary of the method: as §1

[6] = tested on: redroot pigweed (Amaranthus retroflexus); assay: Test G Pre-Emergence Protocol; settings: Amaranthus retroflexus, pre-emergence, 312 h, evaluated after 13 days; for pest or weed control at 15.625 g/ha: 15.625 g ai/ha; for pest or weed control at 15.625 g/ha / pest or weed control at 250 g/ha: read-out: Pigweed, Redroot damage rating (100=total damage to plant; 0=no damage to plant); for pest or weed control at 62.5 g/ha: 62.5 g ai/ha, 100=total damage to plant, 0=no damage to plant, read-out: Pigweed, Redroot damage rating; for pest or weed control at 250 g/ha: 250 g ai/ha
Summary of the method: as §1

[7] = tested on: ivy-leaved morning glory (Ipomoea hederacea); assay: Test G Post-Emergence Protocol; settings: Ipomoea, post-emergence, 312 h, read-out: Morningglory, Ivy-leaved damage rating; for pest or weed control at 15.625 g/ha: 15.625 g ai/ha, evaluated after 13 days (100=total damage to plant; 0=no damage to plant); for pest or weed control at 62.5 g/ha: 62.5 g ai/ha; for pest or weed control at 62.5 g/ha / pest or weed control at 250 g/ha: evaluated after 13 days, 100=total damage to plant, 0=no damage to plant; for pest or weed control at 250 g/ha: 250 g ai/ha
Summary of the method: (§2)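 Sow in soil; grow 8 d (24/16 °C, 14 h light, 65% humidity); spray 15.625/62.5/250 g/ha in acetone:water 50:50 + 0.5% Tween 20; grow on, water twice daily; score damage 0–100 at 13 d.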

[8] = tested on: barnyardgrass (Echinochloa crus-galli); assay: Test G Post-Emergence Protocol; settings: Echinochloa crus-galli, post-emergence, 312 h, read-out: Barnyardgrass damage rating; for pest or weed control at 15.625 g/ha: 15.625 g ai/ha, evaluated after 13 days (100=total damage to plant; 0=no damage to plant); for pest or weed control at 62.5 g/ha: 62.5 g ai/ha; for pest or weed control at 62.5 g/ha / pest or weed control at 250 g/ha: evaluated after 13 days, 100=total damage to plant, 0=no damage to plant; for pest or weed control at 250 g/ha: 250 g ai/ha
Summary of the method: as §2

[9] = tested on: velvetleaf (Abutilon theophrasti); assay: Test G Post-Emergence Protocol; settings: Abutilon theophrasti, post-emergence, 312 h, read-out: Velvetleaf damage rating; for pest or weed control at 15.625 g/ha: 15.625 g ai/ha, evaluated after 13 days (100=total damage to plant; 0=no damage to plant); for pest or weed control at 62.5 g/ha: 62.5 g ai/ha; for pest or weed control at 62.5 g/ha / pest or weed control at 250 g/ha: evaluated after 13 days, 100=total damage to plant, 0=no damage to plant; for pest or weed control at 250 g/ha: 250 g ai/ha
Summary of the method: as §2

corn (Zea mays) [10] = assay: Test G Post-Emergence Protocol; settings: Zea mays, post-emergence, 312 h, read-out: Corn damage rating; for plant injury at 15.625 g/ha: 15.625 g ai/ha, evaluated after 13 days (100=total damage to plant; 0=no damage to plant); for plant injury at 62.5 g/ha: 62.5 g ai/ha; for plant injury at 62.5 g/ha / plant injury at 250 g/ha: evaluated after 13 days, 100=total damage to plant, 0=no damage to plant; for plant injury at 250 g/ha: 250 g ai/ha
Summary of the method: as §2

[11] = tested on: giant foxtail (Setaria faberi); assay: Test G Post-Emergence Protocol; settings: Setaria faberi, post-emergence, 312 h, read-out: Foxtail, Giant damage rating; for pest or weed control at 15.625 g/ha: 15.625 g ai/ha, evaluated after 13 days (100=total damage to plant; 0=no damage to plant); for pest or weed control at 62.5 g/ha: 62.5 g ai/ha; for pest or weed control at 62.5 g/ha / pest or weed control at 250 g/ha: evaluated after 13 days, 100=total damage to plant, 0=no damage to plant; for pest or weed control at 250 g/ha: 250 g ai/ha
Summary of the method: as §2

[12] = tested on: redroot pigweed (Amaranthus retroflexus); assay: Test G Post-Emergence Protocol; settings: Amaranthus retroflexus, post-emergence, 312 h, read-out: Pigweed, Redroot damage rating; for pest or weed control at 15.625 g/ha: 15.625 g ai/ha, evaluated after 13 days (100=total damage to plant; 0=no damage to plant); for pest or weed control at 62.5 g/ha: 62.5 g ai/ha; for pest or weed control at 62.5 g/ha / pest or weed control at 250 g/ha: evaluated after 13 days, 100=total damage to plant, 0=no damage to plant; for pest or weed control at 250 g/ha: 250 g ai/ha
Summary of the method: as §2

| Compound | pest or weed control at 15.625 g/ha [1] | pest or weed control at 62.5 g/ha [1] | pest or weed control at 250 g/ha [1] | pest or weed control at 15.625 g/ha [2] | pest or weed control at 62.5 g/ha [2] | pest or weed control at 250 g/ha [2] | pest or weed control at 15.625 g/ha [3] | pest or weed control at 62.5 g/ha [3] | pest or weed control at 250 g/ha [3] | plant injury at 15.625 g/ha (corn (Zea mays) [4]) | plant injury at 62.5 g/ha (corn (Zea mays) [4]) | plant injury at 250 g/ha (corn (Zea mays) [4]) | pest or weed control at 15.625 g/ha [5] | pest or weed control at 62.5 g/ha [5] | pest or weed control at 250 g/ha [5] | pest or weed control at 15.625 g/ha [6] | pest or weed control at 62.5 g/ha [6] | pest or weed control at 250 g/ha [6] | pest or weed control at 15.625 g/ha [7] | pest or weed control at 62.5 g/ha [7] | further results |
| --- | --- | --- | --- | --- | --- | --- | --- | --- | --- | --- | --- | --- | --- | --- | --- | --- | --- | --- | --- | --- | --- |
| CN1C[C@H](c2cccc(C(F)(F)F)c2)[C@@H](C(=O)Nc2cc(C#N)ccn2)C1=O (racemic) [Compound 1735] | 0% | 0% | 0% | 0% | 0% | 0% | 0% | 0% | 0% | 0% | 0% | 0% | 0% | 0% | 0% | 0% | 0% | 0% | 0% | 0% | pest or weed control at 250 g/ha [7]: 0%; pest or weed control at 15.625 g/ha [8]: 0%; pest or weed control at 62.5 g/ha [8]: 0%; pest or weed control at 250 g/ha [8]: 0%; pest or weed control at 15.625 g/ha [9]: 0%; pest or weed control at 62.5 g/ha [9]: 0%; pest or weed control at 250 g/ha [9]: 0%; plant injury at 15.625 g/ha (corn (Zea mays) [10]): 0%; plant injury at 62.5 g/ha (corn (Zea mays) [10]): 0%; plant injury at 250 g/ha (corn (Zea mays) [10]): 0%; pest or weed control at 15.625 g/ha [11]: 0%; pest or weed control at 62.5 g/ha [11]: 0%; pest or weed control at 250 g/ha [11]: 0%; pest or weed control at 15.625 g/ha [12]: 0%; pest or weed control at 62.5 g/ha [12]: 0%; pest or weed control at 250 g/ha [12]: 0% |
| CN1CC(c2ccc(C(F)(F)F)c(C(F)(F)F)c2)C(C(=O)Nc2cccc(F)c2F)C1=O (stereo not drawn) [Compound 1714] | 0% | 0% | 10% | 0% | 50% | 80% | 0% | 0% | 0% | 0% | 0% | 10% | 30% | 70% | 80% | 0% | 0% | 10% | 10% | 20% | pest or weed control at 250 g/ha [7]: 60%; pest or weed control at 15.625 g/ha [8]: 40%; pest or weed control at 62.5 g/ha [8]: 70%; pest or weed control at 250 g/ha [8]: 80%; pest or weed control at 15.625 g/ha [9]: 0%; pest or weed control at 62.5 g/ha [9]: 30%; pest or weed control at 250 g/ha [9]: 40%; plant injury at 15.625 g/ha (corn (Zea mays) [10]): 20%; plant injury at 62.5 g/ha (corn (Zea mays) [10]): 30%; plant injury at 250 g/ha (corn (Zea mays) [10]): 50%; pest or weed control at 15.625 g/ha [11]: 70%; pest or weed control at 62.5 g/ha [11]: 80%; pest or weed control at 250 g/ha [11]: 80%; pest or weed control at 15.625 g/ha [12]: 70%; pest or weed control at 62.5 g/ha [12]: 80%; pest or weed control at 250 g/ha [12]: 90% |
